Measured values taken from PMC6010119 (Journal of Enzyme Inhibition and Medicinal Chemistry, 2017).

What was measured:
A549 lung cancer cells = experiment: cells; conditions: Homo sapiens, A549, read-out: IC50 on A549
EGFR = EGFR (Homo sapiens, UniProt P00533); format: biochemical; conditions: test concentration not given; conclusion says EGFR in A549 cancer cells
EGFR, sequence (P00533 25-1210): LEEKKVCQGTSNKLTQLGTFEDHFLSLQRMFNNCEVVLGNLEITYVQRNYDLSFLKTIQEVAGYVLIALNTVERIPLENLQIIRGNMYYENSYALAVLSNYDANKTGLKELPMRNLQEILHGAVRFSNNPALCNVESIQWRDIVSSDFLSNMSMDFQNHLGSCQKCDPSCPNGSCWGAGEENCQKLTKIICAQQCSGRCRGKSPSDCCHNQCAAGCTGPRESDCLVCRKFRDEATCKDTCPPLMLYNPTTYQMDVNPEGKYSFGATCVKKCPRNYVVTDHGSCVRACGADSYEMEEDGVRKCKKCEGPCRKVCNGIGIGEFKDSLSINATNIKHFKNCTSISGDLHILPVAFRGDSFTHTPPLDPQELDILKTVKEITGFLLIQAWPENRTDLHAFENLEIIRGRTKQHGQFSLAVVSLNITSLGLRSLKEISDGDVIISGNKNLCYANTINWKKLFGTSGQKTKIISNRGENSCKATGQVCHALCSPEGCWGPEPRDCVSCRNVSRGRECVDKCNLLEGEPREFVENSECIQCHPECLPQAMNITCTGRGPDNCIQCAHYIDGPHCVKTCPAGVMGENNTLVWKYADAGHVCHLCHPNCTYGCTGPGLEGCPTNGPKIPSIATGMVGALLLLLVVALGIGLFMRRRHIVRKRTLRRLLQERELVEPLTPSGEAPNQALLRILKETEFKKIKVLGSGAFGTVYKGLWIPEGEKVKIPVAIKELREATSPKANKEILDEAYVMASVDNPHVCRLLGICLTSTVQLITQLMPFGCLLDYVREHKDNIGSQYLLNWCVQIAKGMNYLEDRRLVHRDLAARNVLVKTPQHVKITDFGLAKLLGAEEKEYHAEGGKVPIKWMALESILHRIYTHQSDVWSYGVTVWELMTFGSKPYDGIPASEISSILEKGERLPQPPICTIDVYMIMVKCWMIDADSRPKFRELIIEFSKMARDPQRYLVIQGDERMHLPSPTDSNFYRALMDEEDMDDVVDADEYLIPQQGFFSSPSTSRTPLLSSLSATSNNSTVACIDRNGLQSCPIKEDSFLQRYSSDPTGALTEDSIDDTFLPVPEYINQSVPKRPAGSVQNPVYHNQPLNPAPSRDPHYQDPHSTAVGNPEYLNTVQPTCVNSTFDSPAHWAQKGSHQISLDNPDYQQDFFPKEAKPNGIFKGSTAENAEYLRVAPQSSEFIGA

| SMILES | IC50 (A549 lung cancer cells) [nM] | % inhibition of EGFR (EGFR) [%] |
| --- | --- | --- |
| NS(=O)(=O)c1ccc(-n2c(SCC(=O)Nc3ccccc3)nc3cc4ccccc4cc3c2=O)cc1 [Compound 5, 2-(4-Oxo-3-(4-sulfamoylphenyl)-3,4-dihydrobenzo[g]quinazolin-2-ylthio)-N-phenylacetamide] | 1017 ± 10 | 55.58 |
| Cc1ccccc1NC(=O)CSc1nc2cc3ccccc3cc2c(=O)n1-c1ccc(S(N)(=O)=O)cc1 [Compound 6, 2-(4-Oxo-3-(4-sulfamoylphenyl)-3,4-dihydrobenzo[g]quinazolin-2-ylthio)-N-o-tolylacetamide] | 105 ± 12 | 84.31 |
| Cc1cccc(NC(=O)CSc2nc3cc4ccccc4cc3c(=O)n2-c2ccc(S(N)(=O)=O)cc2)c1 [Compound 7, 2-(4-Oxo-3-(4-sulfamoylphenyl)-3,4-dihydrobenzo[g]quinazolin-2-ylthio)-N-m-tolylacetamide] | 1271 ± 2 | 66.85 |
| C#Cc1cccc(Nc2ncnc3cc(OCCOC)c(OCCOC)cc23)c1 [Erlotinib, reference compound] | 727 ± 8 |  |

Second part, the compound after the results:

| IC50 (A549 lung cancer cells) [nM] | % inhibition of EGFR (EGFR) [%] | SMILES |
| --- | --- | --- |
| 220 ± 120 | 90.21 | Cc1ccc(NC(=O)CSc2nc3cc4ccccc4cc3c(=O)n2-c2ccc(S(N)(=O)=O)cc2)cc1 [Compound 8, 2-(4-Oxo-3-(4-sulfamoylphenyl)-3,4-dihydrobenzo[g]quinazolin-2-ylthio)-N-p-tolylacetamide] |
| 545 ± 3 | 58.04 | COc1cc(NC(=O)CSc2nc3cc4ccccc4cc3c(=O)n2-c2ccc(S(N)(=O)=O)cc2)cc(OC)c1OC [Compound 15, 2-(4-Oxo-3-(4-sulfamoylphenyl)-3,4-dihydrobenzo[g]quinazolin-2-ylthio)-N-(3,4,5-trimethoxyphenyl)acetamide] |
